The text below walks through data of ChEMBL document CHEMBL1121897, “Synthesis and antihypertensive activity of new 6-heteroaryl-3-hydrazinopyridazine derivatives” (J Med Chem, 1981).

Data set [1] relates to Rattus norvegicus. As to the kind of experiment: Relative potency of compound was measured in anesthetized rats after iv administration. Type of data set: functional.
The subject of data set [2] is Rattus norvegicus. As to the kind of experiment: Hypotensive activity was measured as ED20 which is the dose lowered the normal arterial pressure in anesthetized rats by 20% after iv administration. The data set is classed as functional, Artery.
In data set [3] the test system is Rattus norvegicus. As to the kind of experiment: Relative potency of compound was measured in anesthetized rats after ip administration. Type of data set: functional.
Data set [4] can be described thus: Acute toxicity was measured as LD50 in mice after ip administration. The data set is classed as organism-based. Conditions: mouse, in vivo.
For data set [5], the system named is Rattus norvegicus. As to the kind of experiment: Hypotensive activity was measured as ED20 which is the dose lowered the normal arterial pressure in anesthetized rats by 20% after iv administration. Type of data set: functional, Artery.
The subject of data set [6] is Rattus norvegicus. In words: Relative potency of compound was measured in conscious SH rats after po administration. Type of data set: functional.
For data set [7], the system named is Rattus norvegicus. In words: Antihypertensive activity was measured as ED20 which is the dose lowered the normal arterial pressure in conscious SH rats by 20% after po administration. The data set is classed as functional, Artery.
The subject of data set [8] is Rattus norvegicus. As to the kind of experiment: Hypotensive activity was measured as ED20 which is the dose lowered the normal arterial pressure in anesthetized rat by 20% after iv administration. The data set is classed as functional, Artery.
Data set [9] has as its system Rattus norvegicus. In words: Relative potency of compound was measured in anesthetized rats after iv administration. The data set is classed as functional.
For data set [10], the system named is Rattus norvegicus. As to the kind of experiment: Antihypertensive activity was measured as ED20 which is the dose lowered the normal arterial pressure in conscious SH rats by 20% after po administration. Type of data set: functional, Artery.
A short description of data set [11]: Acute toxicity was measured as LD50 in mice after ip administration. The data set is classed as organism-based. As to conditions: mouse, in vivo.
Data set [12] relates to Rattus norvegicus. As to the kind of experiment: Relative potency of compound was measured in conscious SH rats after po administration. Type of data set: functional.
In data set [13] the test system is Rattus norvegicus. In words: Hypotensive activity was measured as ED20 which is the dose lowered the normal arterial pressure in anesthetized rats by 20% after ip administration. The data set is classed as functional, Artery.
Data set [14] relates to Rattus norvegicus. As to the kind of experiment: Relative potency of compound was measured in anesthetized rats after ip administration. The data set is classed as functional.

With `CC(C)=C/C(C)=N\Nc1ccc(-n2cccc2)nn1.Cl`, in the data set with Rattus norvegicus [1], the Relative potency is 0.25. In addition, in the data set with Rattus norvegicus [2], the ED20 is 1.77 µM/kg.

`NNc1ccc(-n2ccnc2)nn1` gave a Relative potency in the data set with Rattus norvegicus [3] of 0.17. This molecule registered a median lethal dose (LD50) in [4] of 853 µmol/kg. Besides, in the data set on Rattus norvegicus [5], the ED20 was 2.64 µM/kg.

Turning to `Cl.NNc1ccc(-n2cccc2)nn1`, the figures for the Relative potency with Rattus norvegicus [6] and in the data set with Rattus norvegicus [9] were 0.9 and 1.06, respectively. The same molecule returned a median lethal dose (LD50) in data set [4] of 389 µmol/kg. Further, the ED20 was determined as 40.1 µM/kg in the data set on Rattus norvegicus [7] and 0.423 µM/kg in the data set with Rattus norvegicus [8].

For `CCc1nccn1-c1ccc(NN=C(C)C)nn1`, the figures for the ED20 in the data set with Rattus norvegicus [10] and in the data set with Rattus norvegicus [2] were 10.2 µM/kg and 0.247 µM/kg, respectively. Moreover, in [11], the 50% lethal dose (LD50) stood at 508 µmol/kg. Besides, the Relative potency with Rattus norvegicus [12] stood at 3.54; in the data set on Rattus norvegicus [1], 1.82.

In turn, `NNc1ccc(-n2cccn2)nn1` yielded an LD50 in data set [4] of 387 µmol/kg. Besides, the ED20 in the data set on Rattus norvegicus [7] is 27.3 µM/kg; with Rattus norvegicus [5] it was 0.83 µM/kg. In the data set with Rattus norvegicus [12], this molecule showed a Relative potency of 1.32.

In turn, `Cc1ccc(C)n1-c1ccc(NN)nn1.Cl` displayed a Relative potency in the data set with Rattus norvegicus [3] of 0.06. Also, the ED20 in the data set with Rattus norvegicus [5] was found to be 8.02 µM/kg.

In the data set with Rattus norvegicus [1], `CC(C)=NNc1ccc(-n2cccc2)nn1.Cl` came in with a Relative potency of 0.1. The ED20 with Rattus norvegicus [2] amounted to 4.65 µM/kg.

Consider `NNc1ccc(-n2cncn2)nn1`, for which the Relative potency in the data set on Rattus norvegicus [3] was 0.17. The molecule also yielded an LD50 in [4] of 262 µmol/kg.

`NNc1ccc(-n2ccc3ccccc32)nn1` returned a Relative potency in the data set with Rattus norvegicus [3] of 0.22. In data set [4], this molecule showed a median lethal dose (LD50) of 206 µmol/kg. For the same molecule, in the data set on Rattus norvegicus [5], the ED20 came to 2.06 µM/kg.

`CC(C)=NNc1ccc(-n2ccnc2C)nn1`: the figures for the ED20 in the data set with Rattus norvegicus [10] and in the data set on Rattus norvegicus [2] were 10.7 µM/kg and 0.242 µM/kg, respectively. The molecule also registered a 50% lethal dose (LD50) in [11] of 430 µmol/kg. For the same molecule, the Relative potency with Rattus norvegicus [12] was found to be 3.37; with Rattus norvegicus [1] it was 1.86.

On to `NNc1ccc(-n2c3ccccc3c3ccccc32)nn1`, for which the Relative potency in the data set with Rattus norvegicus [3] was under 0.11.

On to `NNc1ccc(-c2ccc(Cl)s2)nn1`, for which the Relative potency in the data set on Rattus norvegicus [3] came to 0.19. This molecule registered an ED20 in the data set on Rattus norvegicus [5] of 9.51 µM/kg.

The molecule `NNc1ccc(-c2cccs2)nn1` yielded a Relative potency in the data set on Rattus norvegicus [3] of 1.08. Besides, in data set [4], the 50% lethal dose (LD50) came out at 521 µmol/kg. Moreover, the ED20 with Rattus norvegicus [5] was found to be 0.41 µM/kg.

On to `Cc1nccn1-c1ccc(NN)nn1`, for which the values for the Relative potency in the data set on Rattus norvegicus [3] and in the data set on Rattus norvegicus [6] were 2.75 and 4.88, respectively. For the same molecule, the median lethal dose (LD50) in [4] was 1020 µmol/kg. The values for the ED20 in the data set on Rattus norvegicus [7] and in the data set with Rattus norvegicus [5] were 7.42 µM/kg and 0.163 µM/kg, respectively.

`NNc1ccc(-n2cccc2)[n+]([O-])n1` came in with an ED20 in the data set with Rattus norvegicus [13] of over 5.24 µM/kg. This molecule gave a Relative potency with Rattus norvegicus [14] of under 0.34.

With `N/N=c1\[nH][nH]/c(=N\N)c2ccccc12` [DIHYDRALAZINE], the ED20 is 36.1 µM/kg in the data set with Rattus norvegicus [10], 1.78 µM/kg in the data set on Rattus norvegicus [13] and 0.449 µM/kg with Rattus norvegicus [2]. The median lethal dose (LD50) in data set [11] is 1080 µmol/kg. For the same molecule, the Relative potency in the data set on Rattus norvegicus [12] and in the data set on Rattus norvegicus [1] was 1 each time.

As to `CCc1nccn1-c1ccc(NN)nn1`, the Relative potency in the data set on Rattus norvegicus [3] came to 1.43; in the data set on Rattus norvegicus [6], 2.52. Besides, the LD50 in [4] is 765 µmol/kg. In addition, the ED20 came out at 14.3 µM/kg in the data set on Rattus norvegicus [7] and 0.313 µM/kg with Rattus norvegicus [5].

The LD50 is the dose at which mortality reaches 50%.
